Assay in all cases: relative viability (nuclei count vs DMSO), 5 days (fraction); higher = more cells survive
Compound in the assay “Idelalisib + Luminespib”: CC[C@H](Nc1ncnc2[nH]cnc12)c1nc2cccc(F)c2c(=O)n1-c1ccccc1 [Idelalisib] + CCNC(=O)c1noc(-c2cc(C(C)C)c(O)cc2O)c1-c1ccc(CN2CCOCC2)cc1 [Luminespib] (partner 0.01 µM)
A digest of the protocol:
(§1)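 Relative viability is defined as nuclei in treated wells over nuclei in vehicle wells. Duplicate plates were run and medians reported. Lung cancer cell lines in 1536-well plates were dosed by pin tool one day after seeding, with one drug or with a fixed anchor-drug dose plus five library-drug doses (not always all listed) in √10 steps, and nuclei were counted after 5 days.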

Compound in the assay “Idelalisib + Pictilisib”: CC[C@H](Nc1ncnc2[nH]cnc12)c1nc2cccc(F)c2c(=O)n1-c1ccccc1 [Idelalisib] + CS(=O)(=O)N1CCN(Cc2cc3nc(-c4cccc5[nH]ncc45)nc(N4CCOCC4)c3s2)CC1 [Pictilisib] (partner 1 µM)
Put shortly:
as §1

Compound in the assay “Idelalisib + Decitabine”: CC[C@H](Nc1ncnc2[nH]cnc12)c1nc2cccc(F)c2c(=O)n1-c1ccccc1 [Idelalisib] + Nc1ncn([C@H]2C[C@H](O)[C@@H](CO)O2)c(=O)n1 [Decitabine] (partner 2 µM)
Put shortly:
as §1

Compound in the assay “Pemetrexed + Lapatinib”: Nc1nc2[nH]cc(CCc3ccc(C(=O)N[C@@H](CCC(=O)O)C(=O)O)cc3)c2c(=O)[nH]1 [Pemetrexed] + CS(=O)(=O)CCNCc1ccc(-c2ccc3ncnc(Nc4ccc(OCc5cccc(F)c5)c(Cl)c4)c3c2)o1 [Lapatinib] (partner 2 µM)
Put shortly:
as §1

Take UMC-11: the relative viability came out at 0.902 with Idelalisib + Luminespib (first compound 0.04 µM); 1.13 with Idelalisib + Luminespib (first compound 0.1265 µM); 1.08 with Idelalisib + Luminespib (first compound 0.4 µM); 1.03 in the assay with Idelalisib + Luminespib (first compound 1.265 µM); 0.949 with Idelalisib + Luminespib (first compound 4 µM); 0.939 with Idelalisib + Pictilisib (first compound 0.04 µM). The relative viability stood at 0.744 in the assay with Idelalisib + Pictilisib (first compound 0.1265 µM); 0.778 with Idelalisib + Pictilisib (first compound 0.4 µM); 0.939 with Idelalisib + Pictilisib (first compound 1.265 µM); 0.865 with Idelalisib + Pictilisib (first compound 4 µM); 0.698 with Idelalisib + Decitabine (first compound 0.04 µM); 0.595 with Idelalisib + Decitabine (first compound 0.1265 µM). In addition, the relative viability worked out at 0.577 in the assay with Idelalisib + Decitabine (first compound 0.4 µM); 0.609 in the assay with Idelalisib + Decitabine (first compound 1.265 µM); 0.333 with Idelalisib + Decitabine (first compound 4 µM); 1.24 with Pemetrexed + Lapatinib (first compound 0.002 µM); 0.952 with Pemetrexed + Lapatinib (first compound 0.006325 µM); 1.11 with Pemetrexed + Lapatinib (first compound 0.02 µM). For the same cell line, the relative viability with Pemetrexed + Lapatinib (first compound 0.06325 µM) came to 1.05; with Pemetrexed + Lapatinib (first compound 0.2 µM), 0.746.

The values are drawn from the supplement of paper PMC10307832.
